Key:
Format in all cases: cell-based
[1] = tested on: GSH extrusion from PC12 cells; assay: Reduced GSH in extracellular fluid (GSH extrusion), OPA-GSH fluorescence; settings: 4HNE, relative to CLN- or mock-treated cells, data not shown
Protocol: To determine whether the loss of intracellular GSH was due to it's extrusion from the cells or oxidation, the level of reduced GSH in the extra-cellular fluid was evaluated.

[2] = tested on: 4HNE-protein adducts in PC12 cells; assay: 4HNE-protein adduct formation, immunocytochemistry / fluorescent microscopy
Description: Cell cultures: Pheochromocytoma (PC12) cells were provided by Dr. Regino Perez-Polo (University of Texas Medical Branch, Department of Human Biological Chemistry and Genetics) and maintained in EMEM supplemented with 10% fetal bovine serum, penicillin (100 IU/ml) and streptomycin (100 micrograms per milliliter (μg/ml)). Exponentially growing populations of PC12 cells were sub-cultured and used for all experiments. Immunocytochemistry: […] Cells were permeabilized by 0.3% Triton X-100, washed in PBS then incubated with primary antibody in PBS containing 0.05% Tween 20 (PBS-T). After washing 3 times in PBS-T, FITC-labeled anti-rabbit IgG (Santa Cruz Biotechnology Inc.) was added. Cells were washed (5 times, for 10 min) with PBS-T and mounted on microscope slides in anti-fade solution (Dako, Inc.). Images of cellular immunofluorescence were acquired using a NIKON Eclipse TE300 scanning microscope. Fluorescent microscopy and Western blot analysis was undertaken to investigate the extent of 4HNE protein-adduct formation in cultures of PC12 cells in the presence of CLN. Cells were pretreated with CLN or LAH in the presence or absence of 4HNE and then analyzed for the formation of 4HNE-protein adducts.

JNK = assay: 4HNE-induced JNK phosphorylation, Western blot with anti-phospho-(Thr-183/Tyr-185) JNK antibody; settings: PC12 cells
Protocol: Western blot analysis: PC12 cells were plated at 7×10^6 cells/T75 flask. After exposure to 4HNE, colostrinin or their combination, cells were collected and lysed in 50 millimolar (mM) Tris, 5 mM EDTA, 150 mM NaCI, 0.5% NP-40, 10% glycerol and protease inhibitor cocktail (supplemented with 1 mM Na3VO4, 2 mM EDTA, 1 mM phenylmethylsulfonyl fluoride). Lysates were centrifuged at 14,000 g for 10 minutes (min) (4° C.) and 40 μg of protein was fractionated on a 10% SDS-polyacrylamide gel and transferred to protein-optimized membranes (Amersham, Inc.). p53 was detected using specific antibody (DO1; Santa Cruz Biotechnology, Inc.) at a dilution of 1:300. Adducts were detected using an antibody to HNE-protein adducts (Pharmingen, Inc.) at a dilution of 1:500. The anti-phospho-JNK antibody (New England Biolabs, Inc., Beverly, Mass.) was raised against a synthetic phosphopeptide (SFMMT*PY*VVTRYYR) corresponding to residues 179-193 of JNK. […]
The effect of CLN on 4HNE-induced activation of JNK in PC12 cells was investigated. The activation of JNK was monitored by Western blot analysis using a highly specific anti-phospho- (Thr-183/Tyr-185) JNK antibody (Materials and Methods).

[3] = tested on: intracellular GSH levels in PC12 cells; assay: Intracellular glutathione (GSH), o-phthalaldehyde fluorescence
Protocol: Measurement of glutathione (GSH): In brief, PC12 cells were mock- or pre-treated with CLN or lactalbumin hydrolysate (LAH), both in 10 μg/ml concentration and then exposed to 4HNE (25 nM). PBS-washed (twice) cells were then extracted with 25% (w/v) metaphosphoric acid solution containing 5 mM EDTA. After ultracentrifugation (105,000 g for 30 min), 100 μl of 100 mM phosphate solution (pH 8.0) containing 5 mM EDTA and 10 μl of o-phthalaldehyde OPA(OPD; Molecular Probes, Inc.) was added to the supernatant, and the fluorescence intensity at 420 nm determined with excitation set at 350 nm (A. P. Senft et al., Anal Biochem., 280:80-86 (2000)).
To investigate whether the anti-oxidant effect of CLN was due to protection of intracellular GSH levels, PC12 cells were pre-treated (with CLN or LAH) and exposed to 4HNE, as described above, and changes in GSH levels were determined fluorimetrically. […] OPA (o-phthalaldehyde or phthalic dicarboxaldehyde) is highly fluorescent when it is conjugated to GSH (A. P. Senft et al., Anal Biochem., 280:80-86 (2000)).

p53 = assay: 4HNE-induced activation of p53, Western blot; settings: PC12 cells; 4HNE alone
Protocol: (§1) Western blot analysis: PC12 cells were plated at 7×10^6 cells/T75 flask. After exposure to 4HNE, colostrinin or their combination, cells were collected and lysed in 50 millimolar (mM) Tris, 5 mM EDTA, 150 mM NaCI, 0.5% NP-40, 10% glycerol and protease inhibitor cocktail (supplemented with 1 mM Na3VO4, 2 mM EDTA, 1 mM phenylmethylsulfonyl fluoride). Lysates were centrifuged at 14,000 g for 10 minutes (min) (4° C.) and 40 μg of protein was fractionated on a 10% SDS-polyacrylamide gel and transferred to protein-optimized membranes (Amersham, Inc.). p53 was detected using specific antibody (DO1; Santa Cruz Biotechnology, Inc.) at a dilution of 1:300. Adducts were detected using an antibody to HNE-protein adducts (Pharmingen, Inc.) at a dilution of 1:500. The anti-phospho-JNK antibody (New England Biolabs, Inc., Beverly, Mass.) was raised against a synthetic phosphopeptide (SFMMT*PY*VVTRYYR) corresponding to residues 179-193 of JNK. For visualization of primary antibody binding, all blots were incubated with horseradish peroxidase-conjugated secondary antibody (Amersham, Inc.) at a dilution of 1:2000, followed by chemiluminescence detection (Amersham, Inc.) and autoradiography.
Whether CLN could modulate p53 levels after 4HNE exposure was also investigated.

PC12 cells = assay: 4HNE-induced apoptosis, annexin V-PE / 7-AAD flow cytometry
Description: Apoptosis is a specific mode of cell death recognized by a characteristic pattern of morphological, biochemical, and molecular changes. Currently the hallmark of apoptosis in vitro is DNA fragmentation and changes in plasma membrane reorganization that allows for the surface expression of phosphatidyl-D-serine and result in increased membrane permeability. The protection of cells against 4HNE by CLN using increased permeability and cell membrane expression of phosphatidyl-D-serine was investigated.
Cells were simultaneously labeled with fluorochrome-conjugated annexin V-PE (detecting PS asymmetry in the plasma membrane, an early marker of apoptosis), 7-aminoactinomycin D (7-AAD) (detecting increased membrane permeability associated with both apoptosis and necrosis). A dual laser flow cytometer (either a Becton-Dickinson FACScan) was used for the simultaneous detection of the PE-conjugated annexin V (which is excited at […]), 7-AAD (excited at 488 nm and emitting at 670 nm). Fluorochrome compatibility was excellent, although careful intralaser compensation is required for simultaneous use of PE and 7-AAD.

[4] = tested on: 4HNE-protein adducts in PC12 cells; assay: 4HNE-protein adduct levels, Western blot analysis; settings: 4HNE alone 25, 12.5, 6.2 nM
Protocol: as §1
To confirm the results generated by immunochemistry, Western blot analysis was used to investigate changes in 4HNE-protein adduct levels in cells treated with 4HNE alone or CLN plus 4HNE.

SH-SY5Y cells = assay: Protection against retinoic acid toxicity in SH-SY5Y cells, graded under the microscope; settings: for DIFFERENTIATION: Retinoic Acid 20 μM (Day 1) alone
Protocol: Retinoic Acid was left on the plate for the duration of the experiment or until washed off. Colostrinin was added to the plate at the indicated doses. When added on Day 1, it was present during the entire experiment. When added on Day 5, it was incubated on the plate for 30 minutes at 37° C. and then removed. The wells were washed twice with PBS before adding β-Amyloid. Cultures were then observed under the microscope and graded.

## CCCCCC(O)/C=C/C=O (stereo not drawn) [4HNE]
[1]
  OPA-GSH-mediated fluorescence of extracellular fluid: significant increase
[2]; 4HNE 25 nM alone
  fluorescence due to antibody binding to 4HNE-protein adducts: bright fluorescence
JNK; 4HNE 25 nM alone
  JNK phosphorylation: potent inducer of JNK phosphorylation
[3]; 25 nM 4HNE
  loss of GSH: more than 50%
[3]; 4HNE 25 nM alone, 30 min
  intracellular GSH levels (OPA-GSH fluorescence): significant reduction
p53
  activation of p53: induced its activation
PC12 cells; 4HNE 25 nM
  toxic effects / apoptosis: did not show toxic effects or induce apoptosis
PC12 cells; 4HNE 100 nM
  apoptosis: Induction of apoptosis
[4]
  levels of 4HNE-protein adducts (Western blot): significant increase

## Nc1ncnc2c1nc(Sc1ccc(Cl)cc1)n2[C@@H]1O[C@@H]2COP(=O)(O)O[C@H]2[C@H]1O [8-(4-chlorophenylthio)-cAMP]
JNK; pretreatment with inhibitor of JNK activation, 4HNE
  4HNE-induced JNK phosphorylation: prevented 4HNE-induced JNK phosphorylation

## OO [H2O2]
[2]; H2O2 100 μM
  fluorescence due to antibody binding to 4HNE-protein adducts: bright fluorescence

## CC1=C(/C=C/C(C)=C/C=C/C(C)=C/C(=O)O)C(C)(C)CCC1 [Retinoic Acid]
SH-SY5Y cells; observed Day 2
  DIFFERENTIATION: ++++ (Approximately 100% of the cells)
SH-SY5Y cells; observed Day 8
  DIFFERENTIATION: + (Approximately 25% of the cells)
SH-SY5Y cells; SH-SY5Y cells, retinoic acid 20 μM
  onset of toxicity of retinoic acid: started showing signs of toxicity by day 6
SH-SY5Y cells; SH-SY5Y cells, retinoic acid 40 μM
  toxicity of retinoic acid: toxicity developed too rapidly
